Measured values from the NIST ThermoML archive (doi:10.1007/s10765-008-0491-0).

Assay: xn = mol fraction of the nth substance listed
Settings: 101 kPa, Liquid; for speed of sound: Sing-around technique in a fixed-path interferometer; for mass density: Vibrating tube method; for viscosity: Capillary tube (Ostwald / Ubbelohde) method

CC(C)CCCC(C)CCCC(C)CCCCC(C)CCCC(C)CCCC(C)C (stereo not drawn) [2,6,10,15,19,23-hexamethyltetracosane] + CCCCCCCCO
Settings	mass density, 293.15 K [kg/m3]	mass density, 303.15 K [kg/m3]	mass density, 308.15 K [kg/m3]	speed of sound, 293.15 K [m/s]	speed of sound, 303.15 K [m/s]	speed of sound, 308.15 K [m/s]	viscosity, 298.15 K [mPa·s]	viscosity, 303.15 K [mPa·s]	viscosity, 308.15 K [mPa·s]
x2 = 0	805.122	801.912	798.709	1381.9	1364.1	1346.5	28.26	22.09	17.77
x2 = 0.0596	805.175	801.944	798.711	1379.9	1362.1	1344.1	24.18	19.21	15.49
x2 = 0.1053	805.299	802.053	798.798	1378.5	1360.4	1343.1	21.92	17.59	14.21
x2 = 0.1563	805.499	802.234	798.947	1376.9	1359.3	1341.5	20.12	16.25	13.14
x2 = 0.2092	805.773	802.479	799.184	1375.7	1357.8	1340.2	18.81	15.26	12.34
x2 = 0.2648	806.107	802.799	799.487	1374.2	1356.4	1338.7	17.88	14.5	11.73
x2 = 0.3404	806.637	803.312	799.989	1372.4	1354.5	1336.8	16.97	13.74	11.13
x2 = 0.398	807.105	803.775	800.439	1370.8	1352.9	1335.3	16.38	13.24	10.72
x2 = 0.4799	807.875	804.507	801.188	1368.6	1350.7	1333.1	15.42	12.45	10.12
x2 = 0.5974	809.279	805.92	802.536	1364.9	1347.1	1329.5	13.55	11.01	9.007
x2 = 0.6988	810.937	807.538	804.116	1361.3	1343.7	1326.1	11.51	9.441	7.786
x2 = 0.8079	813.477	810.008	806.567	1356.9	1339.5	1322.1	9.294	7.693	6.416
x2 = 0.8519	814.812	811.352	807.925	1355.2	1337.8	1320.4	8.533	7.093	5.937
x2 = 0.8942	816.384	812.92	809.463	1353.2	1335.9	1318.7	7.963	6.624	5.572
x2 = 0.9474	818.773	815.429	811.955	1350.6	1333.5	1316.4	7.526	6.288	5.31

CCCCCCCCCCCCCCCC [hexadecane] + CCCCCCCCO
Settings	mass density, 293.15 K [kg/m3]	mass density, 303.15 K [kg/m3]	mass density, 308.15 K [kg/m3]	speed of sound, 293.15 K [m/s]	speed of sound, 303.15 K [m/s]	speed of sound, 308.15 K [m/s]	viscosity, 298.15 K [mPa·s]	viscosity, 303.15 K [mPa·s]	viscosity, 308.15 K [mPa·s]
x2 = 0	770.456	766.981	763.52	1338.6	1320	1301.7	3.041	2.706	2.409
x2 = 0.0461	771.581	768.09	764.586	1337	1318.4	1299.9	3.073	2.748	2.402
x2 = 0.1039	773.103	769.605	766.078	1335.7	1317.1	1298.7	3.089	2.741	2.399
x2 = 0.1547	774.574	771.039	767.495	1334.7	1316.1	1297.7	3.096	2.728	2.406
x2 = 0.1944	775.766	772.218	768.68	1334.3	1315.8	1297.4	3.107	2.728	2.419
x2 = 0.2685	778.197	774.63	771.077	1333.7	1315.3	1296.9	3.175	2.773	2.473
x2 = 0.3383	780.693	777.145	773.575	1333.5	1315.1	1296.8	3.29	2.881	2.561
x2 = 0.4099	783.479	779.937	776.383	1333.3	1314.9	1296.8	3.472	3.041	2.688
x2 = 0.4981	787.31	783.781	780.228	1333.5	1315.3	1297.2	3.768	3.307	2.896
x2 = 0.6017	792.441	788.911	785.346	1334.2	1316.2	1298.4	4.223	3.681	3.218
x2 = 0.6927	797.621	794.075	790.488	1335.8	1317.9	1300.2	4.714	4.086	3.554
x2 = 0.7963	804.426	800.846	797.284	1338.5	1320.9	1303.4	5.384	4.663	4.008
x2 = 0.8445	808.003	804.438	800.882	1340.1	1322.6	1305.3	5.757	4.992	4.251
x2 = 0.895	812.077	808.561	805.017	1342.2	1324.9	1307.8	6.219	5.383	4.54
x2 = 0.9529	817.221	813.871	810.331	1344.9	1327.9	1310.9	6.86	5.883	4.944

CCCCCCCCO [octan-1-ol] + CC(C)CCCC(C)CCCC(C)CCCCC(C)CCCC(C)CCCC(C)C
x1 = 1
Settings	mass density [kg/m3]	speed of sound [m/s]	viscosity [mPa·s]
293.15 K	821.813	1348	–
298.15 K	–	–	7.506
303.15 K	818.796	1330.8	6.344
308.15 K	815.286	1314.1	5.363

CCCCCCCCO [octan-1-ol] + CCCCCCCCCCCCCCCC
x1 = 1
Settings	mass density [kg/m3]	speed of sound [m/s]	viscosity [mPa·s]
293.15 K	821.813	1348	–
298.15 K	–	–	7.508
303.15 K	818.796	1330.8	6.344
308.15 K	815.286	1314.1	5.363
